This passage reports IC50, Activity and inhibition results from ChEMBL document CHEMBL6074718, “Discovery and biological evaluation of potent 2-trifluoromethyl acrylamide warhead-containing inhibitors of protein disulfide isomerase” (Eur J Med Chem, 2025).

The structures appear in SMILES notation. pIC50: −log10 of the molar value. Calls of active or inactive are those of the source. No cut-off for these calls is given here. Where only a bound is given, the exact number is not on record here.

The target in data set [1] is T1, Protein disulfide-isomerase (Homo sapiens, UniProt P07237). As to the kind of experiment: Inhibition of recombinant PDI (unknown origin) preincubated for 1 hrs followed by bovine insulin addition and measured after 80 mins by absorbance based reductase assay.
Target sequence in this assay (P07237 whole entry): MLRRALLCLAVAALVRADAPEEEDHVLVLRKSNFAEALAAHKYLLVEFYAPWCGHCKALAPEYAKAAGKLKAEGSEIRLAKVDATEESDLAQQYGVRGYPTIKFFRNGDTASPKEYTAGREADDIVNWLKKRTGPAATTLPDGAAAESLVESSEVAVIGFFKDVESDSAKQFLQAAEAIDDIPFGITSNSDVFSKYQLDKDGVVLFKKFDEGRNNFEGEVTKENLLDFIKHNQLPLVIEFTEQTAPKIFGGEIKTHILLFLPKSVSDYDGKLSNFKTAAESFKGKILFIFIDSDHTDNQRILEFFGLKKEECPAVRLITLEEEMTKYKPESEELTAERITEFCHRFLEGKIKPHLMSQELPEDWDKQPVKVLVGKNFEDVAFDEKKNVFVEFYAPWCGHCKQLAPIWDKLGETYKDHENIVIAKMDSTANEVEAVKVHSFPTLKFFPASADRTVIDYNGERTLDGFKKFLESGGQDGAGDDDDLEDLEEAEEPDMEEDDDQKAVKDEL
A short description of data set [2]: Antiplatelet aggregation activity in human Platelet assessed as inhibition of thrombin- induced aggregation preincubated for 3 mins followed by thrombin addition by turbidimetric aggregometry.
Data set [3] in a line: Antiplatelet aggregation activity in human Platelet assessed as inhibition of collagen- induced aggregation preincubated for 3 mins followed by collagen addition by turbidimetric aggregometry.
Data set [4] in a line: Antiplatelet aggregation activity in human Platelet assessed as reduction in U46619-induced secretion of p-selectin at 5 uM preincubated for 3 mins followed by U46619 addition and measured after 5 mins by flow cytometric analysis relative to control. It is filed as functional. Details: scale not given: the % may be the effect or the level left. Conditions: time 8 min. (In general: In flow cytometry, cells or beads pass a laser one at a time.)

In the next data set the test system is HUVEC. As to the kind of experiment: Cytotoxicity against HUVEC cells assessed as reduction in cell viability at 5 to 40 uM incubated for 24 hrs by MTT assay. It is filed as toxicity, cell-based. To be noted: human, dose 5-40 µM. In general terms: Tetrazolium dyes change colour on reduction, which living cells bring about.
The next data set has as its system A549. As to the kind of experiment: Antiproliferative activity against human A549 cells assessed as reduction in cell viability at 5 to 40 uM incubated for 24 hrs by MTT assay. Format: functional, cell-based. To be noted: dose 5-40 µM.
A short description of data set [5]: Antiplatelet aggregation activity in human Platelet assessed as inhibition of U46619- induced aggregation preincubated for 3 mins followed by U46619 addition by turbidimetric aggregometry.
The subject of data set [6] is Blood. The experiment in a line: Antithrombotic activity in citrated-human whole blood assessed as reduction in coverage area of thrombi on collagen-coated chamber at 5 uM incubated for 10 mins in presence of DiOC6(3) by fluorescence microscopic analysis relative to control. Format: functional. Further details: scale not given: the % may be the effect or the level left.

For data set [7], the target named is T1, Protein disulfide-isomerase. As to the kind of experiment: Inhibition of PDI in human Platelet assessed as reduction in […] activation by measuring decrease in PAC-1 binding at 5 uM preincubated for 3 mins followed by U46619 addition and measured after 5 mins by flow cytometric analysis. Format: cell-based. To be noted: time 8.0 min.
Target sequence in this assay (P07237 18-508 limits assumed): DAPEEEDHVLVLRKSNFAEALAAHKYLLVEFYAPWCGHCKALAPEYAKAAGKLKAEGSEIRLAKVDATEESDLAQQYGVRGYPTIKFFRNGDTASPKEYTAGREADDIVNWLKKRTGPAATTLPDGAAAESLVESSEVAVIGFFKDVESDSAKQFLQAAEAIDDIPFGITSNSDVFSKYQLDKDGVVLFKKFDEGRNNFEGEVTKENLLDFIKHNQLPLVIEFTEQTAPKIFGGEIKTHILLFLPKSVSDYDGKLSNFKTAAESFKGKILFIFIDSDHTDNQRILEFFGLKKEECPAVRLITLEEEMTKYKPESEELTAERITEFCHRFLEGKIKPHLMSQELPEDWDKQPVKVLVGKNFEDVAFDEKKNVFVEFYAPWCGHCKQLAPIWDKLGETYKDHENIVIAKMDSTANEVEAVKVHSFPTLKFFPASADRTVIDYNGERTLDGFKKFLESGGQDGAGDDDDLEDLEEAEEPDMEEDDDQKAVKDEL
In data set [8] the target is T2, Protein disulfide-isomerase A6 (Homo sapiens, UniProt Q15084).
T2 sequence (Q15084 whole entry): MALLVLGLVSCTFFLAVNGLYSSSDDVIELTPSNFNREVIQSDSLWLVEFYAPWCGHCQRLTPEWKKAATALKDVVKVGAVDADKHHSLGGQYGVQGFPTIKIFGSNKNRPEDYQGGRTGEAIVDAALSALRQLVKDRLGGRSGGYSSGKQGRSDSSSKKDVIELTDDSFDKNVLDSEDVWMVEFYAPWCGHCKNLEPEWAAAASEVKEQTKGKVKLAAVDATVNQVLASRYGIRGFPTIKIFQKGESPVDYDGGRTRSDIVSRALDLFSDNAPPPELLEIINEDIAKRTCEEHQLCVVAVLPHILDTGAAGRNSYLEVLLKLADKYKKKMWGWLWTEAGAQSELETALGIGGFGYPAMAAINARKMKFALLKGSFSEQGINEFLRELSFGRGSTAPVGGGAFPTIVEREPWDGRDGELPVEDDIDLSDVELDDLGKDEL
As to the kind of experiment: Inhibition of recombinant PDIA6 (unknown origin) preincubated for 1 hrs followed by bovine insulin addition and measured after 80 mins by absorbance based reductase assay.

Data set [9] concerns the target T3, Protein disulfide-isomerase A3 (Homo sapiens, UniProt P30101).
T3 sequence (P30101 whole entry): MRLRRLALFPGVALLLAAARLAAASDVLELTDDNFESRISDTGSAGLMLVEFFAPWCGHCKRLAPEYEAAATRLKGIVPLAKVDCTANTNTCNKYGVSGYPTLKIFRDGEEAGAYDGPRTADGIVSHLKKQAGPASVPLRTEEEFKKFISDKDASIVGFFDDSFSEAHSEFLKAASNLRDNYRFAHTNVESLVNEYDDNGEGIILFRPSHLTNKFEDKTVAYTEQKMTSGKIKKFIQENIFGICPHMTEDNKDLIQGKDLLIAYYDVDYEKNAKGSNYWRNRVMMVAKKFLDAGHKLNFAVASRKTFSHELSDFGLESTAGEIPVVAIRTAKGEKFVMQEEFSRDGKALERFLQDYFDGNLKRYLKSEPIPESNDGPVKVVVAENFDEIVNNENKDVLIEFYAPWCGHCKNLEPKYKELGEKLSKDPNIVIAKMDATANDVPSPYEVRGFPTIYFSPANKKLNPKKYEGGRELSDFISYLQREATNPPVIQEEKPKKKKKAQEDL
The experiment in a line: Inhibition of recombinant PDIA3 (unknown origin) preincubated for 1 hrs followed by bovine insulin addition and measured after 80 mins by absorbance based reductase assay.

In data set [10] the target is T1, Protein disulfide-isomerase. As to the kind of experiment: Inhibition of recombinant PDI (unknown origin) at 0.2 uM preincubated for 1 hrs and measured after 10 fold dilution by absorbance based analysis.
Target sequence in this assay (P07237 18-508 limits assumed): as the sequence (P07237 18-508 limits assumed) above
The next data set deals with MDA-MB-231. As to the kind of experiment: Antiproliferative activity against human MDA-MB-231 cells assessed as reduction in cell viability at 5 to 40 uM incubated for 24 hrs by MTT assay. It is filed as functional, cell-based. Conditions: dose 5-40 µM.
Another data set concerns HepG2. The experiment in a line: Antiproliferative activity against human HepG2 cells assessed as reduction in cell viability at 5 to 40 uM incubated for 24 hrs by MTT assay. Format: functional, cell-based. To be noted: dose 5-40 µM.
The target in data set [11] is T1, Protein disulfide-isomerase. As to the kind of experiment: Irreversible inhibition of recombinant PDI (unknown origin) at 4 uM preincubated for 1 hrs and measured after 10 fold dilution by absorbance based analysis.
Target sequence in this assay (P07237 18-508 limits assumed): as the sequence (P07237 18-508 limits assumed) above
The test system of data set [12] is Blood. The experiment in a line: Antithrombotic activity in citrated-human whole blood assessed as reduction in coverage area of thrombi on collagen-coated chamber at 200 uM incubated for 10 mins in presence of DiOC6(3) by fluorescence microscopic analysis relative to control. Format: functional. Further details: scale not given: the % may be the effect or the level left.

Data set [13] relates to Blood. The experiment in a line: Antithrombotic activity in citrated-human whole blood assessed as reduction in coverage area of thrombi on collagen-coated chamber at 100 uM incubated for 10 mins in presence of DiOC6(3) by fluorescence microscopic analysis relative to control. Further details: scale not given: the % may be the effect or the level left. Format: functional.

The test system of data set [14] is Platelet. As to the kind of experiment: Antiplatelet aggregation activity in human Platelet assessed as inhibition of U46619- induced aggregation at 50 to 200 uM preincubated for 3 mins followed by U46619 addition by turbidimetric aggregometry. Format: functional, cell-based. Conditions: dose 50-200 µM.
Data set [15] has as its system Platelet. As to the kind of experiment: Antiplatelet aggregation activity in human Platelet assessed as inhibition of thrombin- induced aggregation at 50 to 200 uM preincubated for 3 mins followed by thrombin addition by turbidimetric aggregometry. Conditions: dose 50-200 µM. Format: functional, cell-based.

In general, pIC50 refers to the negative decadic logarithm of the IC50, by convention in mol/L. `C=C(C(=O)Nc1ccc(OCc2ccccc2)c(OC)c1)C(F)(F)F`: the negative logarithm of the IC50 (pIC50) in [1] was 6.09. Regarding `C=C(C(=O)Nc1ccc(C(F)(F)F)cc1)C(F)(F)F`, the pIC50 in data set [1] is 6.17. `C=C(C(=O)Nc1ccc(-c2ccccc2)cc1)C(F)(F)F`: the pIC50 in data set [1] was 5.79. On the same count and under the same terms, under `COC(=O)c1cc(OC)c(OC)cc1NC(=O)C12CC1C2` (stereo not given) stands less than 4.40; under `C=CS(=O)(=O)Oc1cc(OC)c(OC)cc1C(=O)OC`, 5.96; under `C=C(C(=O)Nc1ccc(OCC)c(OC)c1)C(F)(F)F`, 5.79. Consider `COC(=O)/C=C/C(=O)Nc1cc(OC)c(OC)cc1C(=O)OC`, for which, in data set [1], the pIC50 is less than 4.40. For the compound `C=C(C(=O)Nc1ccc(C(=O)c2ccccc2)cc1)C(F)(F)F`, the negative logarithm of the IC50 (pIC50) was 4.59 in data set [2]; 4.89 in [3]; 6.32 in data set [1]; 5.46 in [5]; 5.15 in data set [8]; 5.82 in data set [9]. For the same compound, the Activity in data set [4] is 52%; in the data set with HUVEC it was “Non-toxic”; in the data set on Blood [6] it was 36%. For the same compound, the outcome in the data set on A549, in the data set with MDA-MB-231 and in the data set with HepG2 was inactive. Besides, the inhibition result in data set [7] is “Active”. Also, in data set [10], the inhibition result is “Not active; Compound Exhibited Reversible Binding Mode With Pdi”. On to `COC(=O)c1cc(OC)c(OC)cc1NC(=O)C1CO1` (stereo not given), for which, in data set [1], the negative logarithm of the IC50 (pIC50) was less than 4.40. Same read-out and setting: under `C=CS(=O)(=O)Nc1cc(OC)c(OC)cc1C(=O)OC` stands 4.72; under `C=C(C(=O)Nc1ccc(OCCC)c(OC)c1)C(F)(F)F`, 5.91.

`C=C(C(=O)Nc1ccc(Cc2ccccc2)cc1)C(F)(F)F`: the negative logarithm of the IC50 (pIC50) in data set [1] is 6.25. On the same count and under the same terms, under `C=C(C(=O)Nc1ccc(OC)c(OC)c1)C(F)(F)F` stands 5.52. Turning to `C#CC(=O)N(c1ccc(OC)c(OC)c1)C(C(=O)NCC(=O)OCC)c1cccs1` (stereo not given), the inhibition entry in [11] was “Active”. Also, the pIC50 in data set [1] was 4.91; in [8], less than 4.40; in data set [9], 4.55. `C#CC(=O)Nc1cc(OC)c(OC)cc1C(=O)OC`: the pIC50 in data set [1] is 5.80. Consider `CC(=O)Oc1ccccc1C(=O)O` [ASPIRIN], for which the values for the Activity with Blood [12] and in the data set on Blood [13] were 46% and 21%, respectively. The pIC50 in data set [3] is 4.13. In addition, the result in the data set with Platelet [14] and in the data set on Platelet [15] was inactive. Take `C=C(C(=O)Nc1cc(OC)c(OC)cc1C(=O)OC)C(F)(F)F`: in data set [1], the pIC50 was 5.66. The same measure, in the same setting: under `C=C(C(=O)Nc1ccc(N(CC)CC)cc1)C(F)(F)F` stands 6.08; under `COC(=O)c1cc(OC)c(OC)cc1NC(=O)CCl`, less than 4.40.

For the compound `C=C(C(=O)Nc1cc(OC)c(OC)c(OC)c1)C(F)(F)F`, in data set [1], the pIC50 was 6.24.

With `C=C(C(=O)Nc1ccc(C(C)(C)C)cc1)C(F)(F)F`, in data set [1], the pIC50 is 6.06.

Turning to `C=C(C(=O)Nc1ccc2c(c1)OCO2)C(F)(F)F`, in data set [1], the negative-log IC50 (pIC50) was 5.54. The same measure, in the same setting: under `C=C(C(=O)Nc1ccc(CN2CCOCC2)cc1)C(F)(F)F` stands 5.92; under `C=C(F)C(=O)Nc1cc(OC)c(OC)cc1C(=O)OC`, less than 4.40; under `C=CC(=O)Nc1cc(OC)c(OC)cc1C(=O)OC`, less than 4.40.
